The text below walks through data of patent US12083133B2, “Use of cholecalciferol as adjuvant in the treatment of muscular dystrophies” (ABIOGEN PHARMA SPA, priority 2021, dated 2024).

Series [1] concerns mdx mice. Nature of the series: Four limb hang test. It is filed as in vivo, mouse. The source says: For the study, it was chosen as experimental model the mdx (Muscular Dystrophy X-linked) mouse, which has long been used to evaluate the efficacy of drugs against muscular dystrophy and other degenerative diseases that affect skeletal muscles, inducing functional loss. These mice represent the reference animal model for clinical projections, also because they made it possible to overcome the obstacle of the limited availability of human biopsy material for experimental purposes.
The model responds to both steroidal and non-steroidal anti-inflammatory and immunosuppressive treatments and it is also used to study the differential gene and protein expression induced by the various treatments. The test system altogether consisted in 50 C57BL/10ScSn-Dmdxdx/J male mice and 27 C57/BL male mice of about 4-5 weeks of age.
After a short pre-housing period (about 4 days after arrival in the animal enclosure), the animals were subjected to baseline behavioural analyses, as described hereafter. The start time of the analyses, after the pre-housing period, is defined zero time (t=0).
Mice were also subjected to physical exercise with a rotating treadmill (Ugo Basile, Milan) for 15 minutes twice a week at a speed of 12 m/min, to standardize the pathology.
This test was performed at the beginning and at the end of the trial (baseline and final). It is performed using a device that uses a steel grid to measure the mouse's ability to support itself on all four limbs, opposing the force of gravity. The animal is placed on the grid (40×40 cm, delimited by iron strips placed perpendicular to the grid and 5 cm high, with 1 cm squares formed by 1 mm diameter steel wire) which is inverted so that the animal finds itself upside down and hangs on with its paws, about 30 cm from the floor. […] The grid is kept in position for a maximum of 5 minutes and the time, in seconds, during which the animal is able to hang with its paws is recorded.
The results of test are shown in the following table 2 and are expressed in seconds and normalized for the animal's weight. Groups 1-8 reported herein are those described in table 1.

For series [2], the system named is muscle fibres of mdx mice. Nature of the series: Fluorescence microscopy of muscle fibres (DAPI, anti-WGA). As to conditions: 12 weeks of treatment, versus untreated control mdx mice. Format: in vivo, mouse. The source says:
In fluorescence microscopy analyses DAPI staining (blue) was used for nuclei, while an anti-WGA antibody (WGA, or wheat germ agglutinin, Alexa Fluor® 594 conjugate), which stains cell membranes in red, was used to mark muscle fibres.

Series [3] relates to muscle tissue of mdx mice. As to the kind of experiment: Histopathologic analyses of muscle tissue (haematoxylin-eosin), graded 0 (absent) to 3 (very high). Format: in vivo, mouse. As for the experimental part:
These analyses were performed on the material taken during necropsy performed after the sacrifice of the animals of groups 7 and 8. In particular, the quadriceps femoris, the diaphragm and the anterior tibial muscle were collected.
The samples taken and fixed were decalcified, embedded in paraffin according to the known technique, cut into 5-7 μm thick sections and stained with haematoxylin-eosin. The following forms of alteration were evaluated at the muscle tissue level, each of which was classified according to a grade from 0 (absent) to 3 (very high): • Atrophy • Degeneration • Inflammation • Oedema • Presence of adipose tissue • Hypertrophy • Regeneration • Mineralization Results

Series [4] concerns MyoD. Nature of the series: Immunohistochemistry with anti-MyoD antibody (proliferating myoblasts). It is filed as in vivo, mouse. To be noted: mdx mice, 24 weeks of treatment. As for the experimental part:
(§1) Skeletal muscle growth and regeneration are attributable to satellite cells, which are stem cells resident in the basal lamina surrounding each myofiber. The expression of Pax7 (Paired-Box Transcription Factor 7) is constitutive, that is, this factor is expressed in these cells both in the quiescent and in the activation phase. When satellite cells are activated, they also co-express MyoD, which correlates with active muscle regeneration.
(§2) The expression of Pax7 was then analysed for the identification of satellite cells (progenitors) located under the basal lamina of myofibers, and of MyoD, expressed by myoblasts during proliferation.
(§3) Analyses were performed on the groups after 24 weeks of treatment.
(§4) Samples for immunohistochemistry were included in OCT, placed in isopentane, frozen with liquid nitrogen and kept at −80° C. Anti-Pax7 antibodies were used to label satellite cells and anti-MyoD for myoblasts.

Series [5] concerns Pax7. As to the kind of experiment: Immunohistochemistry with anti-Pax7 antibody (satellite cells). Format: in vivo, mouse. As for the experimental part:
as §1, §2, §3, §4

For series [6] the following is noted: cited from earlier work.
The test system of series [7] is muscular dystrophies. To be noted: state of the art; cited from earlier work.
In series [8] the test system is Duchenne dystrophy. To be noted: state of the art; optimal dose 0.75 mg/kg per day; cited from earlier work.
[9] abbreviates: group 8, mdx mice, 175 μg/kg/day once a week, t = 24 weeks, grade 0 to 3.

“Also recorded” adds a separate entry of the source.

For `C=C1CC[C@H](O)C/C1=C/C=C1\CCC[C@]2(C)[C@@H]([C@H](C)CCCC(C)C)CC[C@@H]12` [cholecalciferol], in series [1] (group 5, mdx mice, 175 μg/kg/day (7000 IU/day) per os once per week for 12 weeks), the “Time in seconds (normalized for the animal's weight) t = 12 weeks” value is 0.8 s. Moreover, in series [1] (group 5, mdx mice, baseline before treatment (12-week arm)), the “Time in seconds (normalized for the animal's weight) t = 0” value was 0.9 s. In addition, in series [1] (group 8, mdx mice, 175 μg/kg/day (7000 IU/day) per os once per week for 24 weeks), the “Time in seconds (normalized for the animal's weight) t = 24 weeks” value is 0.9 s. Besides, the “Time in seconds (normalized for the animal's weight) t = 12 weeks” value in series [1] (group 8, mdx mice, 175 μg/kg/day (7000 IU/day) per os once per week, 24-week arm) was found to be 1.2 s. The “Time in seconds (normalized for the animal's weight) t = 0” value in series [1] (group 8, mdx mice, baseline before treatment (24-week arm)) was found to be 1.7 s. In series [1] (mdx mice, test at 24 weeks), the “Increase in resistance to detachment from the grid, in terms of time, versus untreated mdx animals” value was found to be 80%. Further, the “Structure of muscle fibres and position of cell nuclei” value in series [2] is “cell nuclei distributed both centrally and peripherally and less disrupted muscle fibres; also recorded: visibly less disrupted”. In addition, in series [3] (group 8, mdx mice, 175 μg/kg/day once a week, t = 24 weeks, grade 0 (absent) to 3 (very high)), the “Medium Grading: Atrophy” value turned out to be 0.44. Besides, in series [3] (setting [9]), the “Medium Grading: Degeneration” value came to 0, the “Medium Grading: Hypertrophy” value is 2.11, the “Medium Grading: Inflammation” value came out at 0 and the “Medium Grading: Mineralization” value turned out to be 0.33. For the same compound, in series [3] (setting [9]), the “Medium Grading: Oedema” value is given as 0.44, the “Medium Grading: Presence of adipose tissue” value is 0.11 and the “Medium Grading: Regeneration” value turned out to be 2.66. The “Microscopic examination of muscle tissue stained with haematoxylin-eosin (in words)” value in series [3] (mdx mice treated for 24 weeks) is “areas of regeneration and hypertrophy, and only in few cases muscular atrophy, moreover at low levels”. Moreover, the “Labelling with anti-MyoD antibody / expression of MyoD” value in series [4] is given as “appears extensive; also recorded: restored the expression of MyoD to levels similar to those of wild-type mice”. Further, the “Positivity of muscle tissue for anti-Pax7 antibody (marker of satellite cells)” value in series [5] (mdx mice treated with cholecalciferol) is on record as “highly positive”. The “Labelling with anti-Pax7 antibody (satellite cells)” value in series [5] (mdx mice, 24 weeks of treatment, versus vehicle-treated mdx mice) was “clearly present and localized on the contours of the muscle fibres; also recorded: more evident”. In addition, in series [6] (estimated), the “Blood half-life (T1/2)” value is 19 to 25 h. Further, the Functional half-life entry in series [6] (related to slow release from adipose tissue) is recorded as “several weeks”.

Take `CC(C)(S)[C@@H](N)C(=O)O` [penicillamine]: the “Efficacy as therapy of muscular dystrophies” value (from here on “Efficacy as therapy”) in series [7] is “ineffective”.

In the case of `C[C@]12C=CC(=O)C=C1CC[C@@H]1[C@@H]2C(=O)C[C@@]2(C)[C@H]1CC[C@]2(O)C(=O)CO` [prednisone], the “Delay of the progression time of Duchenne dystrophy” value in series [8] is on record as “more than 3 years”.

As to `C[C@]12CC[C@H]3[C@@H](CCC4=CC(=O)CC[C@@]43C)[C@@H]1CC[C@@H]2O` [testosterone], the “Efficacy as therapy” value in series [7] is recorded as “ineffective”.

With vitamin E, the “Efficacy as therapy” value in series [7] is listed as “ineffective”.
